According to patent US20080274998A1, “Disaccharide Molecules and Derivatives Thereof and Methods of Using Same” (YEDA RESEARCH AND DEVELOPMENT CO. LTD., priority 2004, published 2008):

B1: recombinant moesin: Recombinant human moesin residues 1-577, expressed in E. coli as GST fusion and cleaved with thrombin (protein, UniProt P26038 2-577, looked up)
Moesin: PKTISVRVTTMDAELEFAIQPNTTGKQLFDQVVKTIGLREVWFFGLQYQDTKGFSTWLKLNKKVTAQDVRKESPLLFKFRAKFYPEDVSEELIQDITQRLFFLQVKEGILNDDIYCPPETAVLLASYAVQSKYGDFNKEVHKSGYLAGDKLLPQRVLEQHKLNKDQWEERIQVWHEEHRGMLREDAVLEYLKIAQDLEMYGVNYFSIKNKKGSELWLGVDALGLNIYEQNDRLTPKIGFPWSEIRNISFNDKKFVIKPIDKKAPDFVFYAPRLRINKRILALCMGNHELYMRRRKPDTIEVQQMKAQAREEKHQKQMERAMLENEKKKREMAEKEKEKIEREKEELMERLKQIEEQTKKAQQELEEQTRRALELEQERKRAQSEAEKLAKERQEAEEAKEALLQASRDQKKTQEQLALEMAELTARISQLEMARQKKESEAVEWQQKAQMVQEDLEKTRAELKTAMSTPHVAEPAENEQDEQDENGAEASADLRADAMAKDRSEEERTTEAEKNERVQKHLKALTSELANARDESKKTANDMIHAENMRLGRDKYKTLRQIRQGNTKQRIDEFESM
modifications: GST tag removed by thrombin
notes: Recombinant human moesin residues 1-577, expressed in E. coli as GST fusion and cleaved with thrombin

Columns and labels:
Jurkat cells = assay: 51Cr-labeled Jurkat cell adhesion to fibronectin; type: cell-based; details: DS-9267 100 ng/ml; fibronectin 1 μg/ml; adherent cells determined after 30 minutes
Experimental: The amount of adherent cells was determined 30 minutes later. Non-adherent cells were washed away and the remaining bound cells were lysed. The radioactivity of lysates, representing the amount of fibronectin-adherent cells, was determined using a γ-counter. The results represent the percentage of cells that were bound to the wells from total cells that were added to each well.
Jurkat cells, a CD4+ T-lymphoma cell line, were maintained in medium consisted of RPMI 1640 (Bet Haemek, Israel), supplemented with 10% cosmic calf serum (HyClone Laboratories), 2 mM L-glutamin and 1% Pen-Strep (Bet Haemek, Israel), at 37° C., in an atmosphere of 5% CO2.
It was shown that certain heparin- and heparan sulfate-derived DS induced, in a dose-dependent manner, the adhesion of human T cells to both ECM and immobilized fibronectin (6). This adhesion appears to involve β1 integrin recognition and activation and is associated with specific intracellular activation pathways (6). Since moesin is expressed on T cells, antibody to moesin was examined for the potential to block the ability of DS to induce adhesion in T cells.

T cells = assay: T cell adhesion to fibronectin-coated wells after DS pretreatment and activation; type: cell-based, human; details: T cells pretreated with DS at 1 ng/ml, 30 minutes; chemoattractants MIP-1β, SDF-1α or RANTES 20 ng/ml each
Experimental: T cells were pretreated with DS9392 (A), DS9267 or DS8892 (B), at 1 ng/ml, 30 minutes incubation for each, and were then seeded on fibronectin (FN)-coated microtiter wells and activated with either PMA (50 ng/ml), anti-CD3 mAb (15 μg/ml), IL-2 (10 IU/ml) or one of the chemoattractants, MIP-Iβ, SDF-Iα or RANTES (20 ng/ml each). T cell adhesion was then measured.
Human T cells were purified from the peripheral blood of healthy donors. Briefly, human peripheral blood was isolated on Ficoll gradients, washed, resuspended in PBS containing 3% heat-inactivated FCS (Bet Haemek, Israel), and incubated (45 min, 37° C., 7% CO2-humidified atmosphere) on nylon-wool columns (NovaMed; Jerusalem, Israel). Non-adherent cells were eluted and washed, and platelets were removed by centrifugation (700 rpm, 15 min, 18° C.). Residual monocytes were removed by incubation of the cells on tissue culture plates (2 h, 37° C.), after which non-adherent cells were collected. The CD3^+ content of these PBLs was >95%.
Without wishing to be limited by a single hypothesis, binding of the DS to moesin would appear to promote inhibition of T-cell adhesion and migration.

recombinant moesin = biological target: T1, recombinant moesin (Homo sapiens, UniProt P26038); assay: Binding of heparin-disaccharide to immobilized recombinant moesin (plate assay, anti-heparan sulfate mAb detection); details: plates coated with recombinant moesin or purified BSA, detection with anti-heparan sulfate mAb and anti-rat IgM Ab, duplicate
T1 construct: The plasmid pGEX-KG-human moesin residues 1-577 (pGhuMo); GST (cleaved yes); made in house; host or cells: Escherichia coli
Experimental: Following coating, DS-9392 was added to the plates, incubated and washed. Detection was performed using an anti-heparan sulfate mAb followed by an anti-rat IgM Ab. Each experiment was performed in duplicate. The results represent mean and SD.
The plasmid pGEX-KG-human moesin residues 1-577 (pGhuMo) (provided by Prof. Furthhmayer [Stanford, Calif.]) contains human moesin as a fusion protein to glutathione S-transferase (GST). Escherichia coli (E. coli) bacteria were transformed with pGhuMo and grown in L-broth containing penicillin (100 μg/ml). These bacteria were induced to express the fusion protein with 100 μM isopropyl β-D-thiogalactopyranoside (IPTG). The recombinant protein was bound to a glutathione-agarose column (Sigma) and cleaved with thrombin (Pharmacia; Piscataway, N.J.). The purified protein was dialyzed against PBS at 4° C. and stored at −70^cC. The purity and integrity of the protein were determined by size separation using SDS-polyaclrylamide gel electrophoresis (PAGE), Coomassie blue staining, and Western blotting with the anti-human moesin mAb clone 38/87. The protein was quantitated by densitometric analysis of recombinant moesin and known amounts of BSA, which were used to construct a standard curve.
Since moesin binds to heparin and heparan sulfate (1), disaccharide (DS) derived from heparin was also tested to see if it could also bind to moesin.

HT-29 cells = assay: TNFα-induced IL-8 / IL-1β secretion from HT-29 cells (ELISA); type: cell-based; details: DS-9267 pre-incubated 30 min with increasing concentrations of recombinant human moesin; TNFα-stimulated HT-29 cells, 24 hours
Experimental: Following culture, the cells were pre-incubated for 30 minutes with either anti-moesin or control antibody (anti HSP-60). Then DS-9267 was added for 30 minutes, after which TNFα (200 ng/ml) was added and the cells were incubated for additional 20 hours. Subsequently, the supernatants were collected and the level of IL-8 was determined.
Following culture, the cells were supplemented with fresh medium and the DS-9267 which was pre-incubated for 30 minutes with recombinant moesin at the indicated concentrations was added to all cells except for the controls. The culture was continued for 24 hours. Subsequently, the supernatants were collected and assayed for the concentrations of IL-8 (A) and IL-1β (B).
Epithelial cells were grown as confluent monolayer's in 24-well tissue culture plates. […] Following culture, the supernatants were harvested and analyzed for cytokine secretion. […]
IL-8 concentration was measured by ELISA. […] IL-1β concentration was measured by an ELISA kit (Genzyme, Cambridge, Mass.) according to the manufacturer's instructions.
It has been shown that disaccharide molecules derived from heparin and from heparan sulfate can inhibit the secretion of IL-8 and IL-1β by HT-29 cells. […] Subsequently, the cells were treated with TNFα and the secretion of IL-8 was assessed. […]

T1 sequence (P26038 whole entry, the tested form may be a part): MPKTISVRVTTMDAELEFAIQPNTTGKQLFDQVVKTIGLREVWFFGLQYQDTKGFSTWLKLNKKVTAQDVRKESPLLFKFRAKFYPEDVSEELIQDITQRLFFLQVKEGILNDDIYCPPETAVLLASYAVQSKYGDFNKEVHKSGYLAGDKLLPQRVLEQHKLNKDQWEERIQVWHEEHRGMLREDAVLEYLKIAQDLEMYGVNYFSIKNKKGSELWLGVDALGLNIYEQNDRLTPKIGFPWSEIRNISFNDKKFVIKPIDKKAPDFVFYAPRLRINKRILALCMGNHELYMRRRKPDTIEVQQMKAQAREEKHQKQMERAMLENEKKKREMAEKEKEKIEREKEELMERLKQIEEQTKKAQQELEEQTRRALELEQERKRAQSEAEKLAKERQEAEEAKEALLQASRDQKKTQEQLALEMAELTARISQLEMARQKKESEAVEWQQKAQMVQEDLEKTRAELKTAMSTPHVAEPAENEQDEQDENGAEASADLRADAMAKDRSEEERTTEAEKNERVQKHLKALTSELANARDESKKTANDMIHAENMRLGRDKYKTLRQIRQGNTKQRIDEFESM

Row | Molecule | Jurkat cell adhesion to fibronectin (Jurkat cells) | chemokine-mediated T cell adhesion to fibronectin (T cells) | binding to immobilized recombinant moesin versus BSA (recombinant moesin) | binding to immobilized recombinant moesin versus BSA (recombinant moesin; listed as Heparin-DS) | effect of recombinant moesin on the inhibitory effect of DS on IL-8 and IL-1β secretion (HT-29 cells)
1 | O=C(O)C1=CC(O)C(OS(=O)(=O)O)C(OC2C(COS(=O)(=O)O)OC(O)C(NS(=O)(=O)O)C2O)O1 (stereo not drawn) [DS-9267, 2-O-sulfate-4-deoxy-4-en-iduronic acid-(alpha.-1,4)-2-deoxy-2-N-sulfate-6-O-sulfateglucosamine] | induced | specifically inhibits chemokine-mediated T cell adhesion |  |  | 
2 | O=C(O)C1=CC(O)C(OS(=O)(=O)O)C(OC2C(CO)OC(O)C(NS(=O)(=O)O)C2O)O1 (stereo not drawn) [DS-9392, 2-O-Sulfate-4-deoxy-4-en-iduronic acid-(alpha-1,4)-2-deoxy-2-N-sulfateglucosamine] |  | specifically inhibits chemokine-mediated T cell adhesion | The difference was significant | binds to moesin, and not to BSA | 
3 | B1 |  |  |  |  | antagonized the inhibitory effect of the DS in a dose-dependent manner
